Results as given in ChEMBL document CHEMBL3400105, “Discovery of novel pyrazolopyrimidinone analogs as potent inhibitors of phosphodiesterase type-5” (Bioorg Med Chem, 2015).
≈ marks a conversion by molar mass, not a printed value.

Experiments:
[1] = biological target: T1, cGMP-specific 3',5'-cyclic phosphodiesterase (Homo sapiens, UniProt O76074)
[2] = AUC (0 to time) in Balbc mouse at 1 mg/kg, ip; format: ADME, organism-based; design: dose 1 mg/kg, route intraperitoneal; conditions: plasma
[3] = AUC (0 to time) in Swiss mouse at 10 mg/kg, po; format: ADME, organism-based; design: dose 10 mg/kg, route oral; conditions: plasma
[4] = AUC (0 to infinity) in Balbc mouse at 1 mg/kg, iv; format: ADME, organism-based; design: time infinity, dose 1 mg/kg, route intravenous; conditions: plasma
[5] = AUC (0 to infinity) in Balbc mouse at 1 mg/kg, ip; format: ADME, organism-based; design: time infinity, dose 1 mg/kg, route intraperitoneal; conditions: plasma
[6] = AUC (0 to infinity) in Swiss mouse at 10 mg/kg, po; format: ADME, organism-based; design: time infinity, dose 10 mg/kg, route oral; conditions: plasma
[7] = Apparent oral clearance in Balbc mouse at 1 mg/kg, iv; format: ADME, organism-based; design: dose 1 mg/kg, route oral; conditions: in vivo
[8] = Apparent oral clearance in Swiss mouse at 10 mg/kg, po; format: ADME, organism-based; design: dose 10 mg/kg, route oral; conditions: in vivo
[9] = Apparent oral volume of distribution in Balbc mouse at 1 mg/kg, iv; format: ADME, organism-based; design: dose 1 mg/kg, route oral; conditions: in vivo
[10] = Apparent oral volume of distribution in Swiss mouse at 10 mg/kg, po; format: ADME, organism-based; design: dose 10 mg/kg, route oral; conditions: in vivo
CYP3A4 = CYP3A4 (Homo sapiens, UniProt P08684); assay: Inhibition of CYP3A4 (unknown origin) at 10 uM; format: ADME
CYP2C9 = CYP2C9 (Homo sapiens, UniProt P11712); assay: Inhibition of CYP2C9 (unknown origin) at 10 uM; format: ADME
[11] = biological target: Dual specificity calcium/calmodulin-dependent 3',5'-cyclic nucleotide phosphodiesterase 1A (Homo sapiens, UniProt P54750); assay: Inhibition of PDE1A1 (unknown origin) using fluorescently labeled cAMP substrate by fluorescence polarization assay
[12] = biological target: cGMP-dependent 3',5'-cyclic phosphodiesterase (Homo sapiens, UniProt O00408); assay: Inhibition of PDE2A1 (unknown origin) using fluorescently labeled cAMP substrate by fluorescence polarization assay
[13] = biological target: cGMP-inhibited 3',5'-cyclic phosphodiesterase 3A (Homo sapiens, UniProt Q14432); assay: Inhibition of PDE3A (unknown origin) using fluorescently labeled cAMP substrate by fluorescence polarization assay
[14] = biological target: 3',5'-cyclic-AMP phosphodiesterase 4A (Homo sapiens, UniProt P27815); assay: Inhibition of PDE4A1 (unknown origin) using fluorescently labeled cAMP substrate by fluorescence polarization assay
[15] = biological target: T1, cGMP-specific 3',5'-cyclic phosphodiesterase; assay: Inhibition of PDE5A1 (unknown origin)
[16] = biological target: Cone cGMP-specific 3',5'-cyclic phosphodiesterase subunit alpha' (Homo sapiens, UniProt P51160); assay: Inhibition of PDE6C (unknown origin)
[17] = biological target: High affinity 3',5'-cyclic-AMP phosphodiesterase 7A (Homo sapiens, UniProt Q13946); assay: Inhibition of GST-tagged recombinant human PDE7A1
[18] = biological target: High affinity cAMP-specific and IBMX-insensitive 3',5'-cyclic phosphodiesterase 8A (Homo sapiens, UniProt O60658); assay: Inhibition of GST-tagged recombinant human PDE8A1
[19] = biological target: High affinity cGMP-specific 3',5'-cyclic phosphodiesterase 9A (Homo sapiens, UniProt O76083); assay: Inhibition of GST-tagged recombinant human PDE9A2
[20] = biological target: cAMP and cAMP-inhibited cGMP 3',5'-cyclic phosphodiesterase 10A (Homo sapiens, UniProt Q9Y233); assay: Inhibition of PDE10A1 (unknown origin) using fluorescently labeled cAMP substrate by fluorescence polarization assay
[21] = biological target: Dual 3',5'-cyclic-AMP and -GMP phosphodiesterase 11A (Homo sapiens, UniProt Q9HCR9); assay: Inhibition of GST-tagged recombinant human PDE11A4
[22] = Solubility in simulated gastric fluid; format: ADME, Stomach
[23] = Solubility in water; format: physicochemical
[24] = Solubility in PBS; format: physicochemical
[25] = Solubility in simulated intestinal fluid; format: ADME
[26] = Passive permeability across apical to basolateral side in human Caco2 cells; format: ADME, cell-based
[27] = Passive permeability across basolateral to apical side in human Caco2 cells; format: ADME, cell-based; conditions: Caco-2, read-out: permeability
[28] = Fraction unbound in whole blood (unknown origin); format: ADME, tissue-based
[29] = Lipophilicity, log P of the compound; format: physicochemical; conditions: octanol/water
[30] = Lipophilicity, log D of the compound; format: physicochemical; conditions: octanol/water
[31] = Dissociation constant, pKa of the compound; format: physicochemical
[32] = Plasma protein binding (unknown origin); format: ADME, cell-free; conditions: read-out: PPB (converted)
[33] = Metabolic stability in mouse liver microsomes assessed as metabolized drug; format: ADME; conditions: read-out: Drug metabolism
[34] = Half life in Swiss mouse at 10 mg/kg, po; format: ADME, organism-based; design: dose 10 mg/kg, route oral; conditions: in vivo
[35] = Cmax in Balbc mouse at 1 mg/kg, iv; format: ADME, organism-based; design: dose 1 mg/kg, route intravenous; conditions: in vivo
[36] = Cmax in Balbc mouse at 1 mg/kg, ip; format: ADME, organism-based; design: dose 1 mg/kg, route intraperitoneal; conditions: in vivo
[37] = Cmax in Swiss mouse at 10 mg/kg, po; format: ADME, organism-based; design: dose 10 mg/kg, route oral; conditions: in vivo
[38] = Tmax in Balbc mouse at 1 mg/kg, ip; format: ADME, organism-based; design: dose 1 mg/kg, route intraperitoneal; conditions: in vivo
[39] = Tmax in Swiss mouse at 10 mg/kg, po; format: ADME, organism-based; design: dose 10 mg/kg, route oral; conditions: in vivo
Plasma = assay: Initial plasma concentration in Swiss mouse at 10 mg/kg, po; format: ADME, organism-based; design: dose 10 mg/kg, route oral; conditions: in vivo
[40] = AUC (0 to time) in Balbc mouse at 1 mg/kg, iv; format: ADME, organism-based; design: dose 1 mg/kg, route intravenous; conditions: plasma
in vitro = conditions: human, Caco-2
Oryctolagus cuniculus = assay: Induction of penile erection in conscious rabbit model assessed as area under curve of length of uncovered penile mucosa at 3 mg/kg, iv into ear vain

Chain of High affinity 3',5'-cyclic-AMP phosphodiesterase 7A (Q13946 whole entry): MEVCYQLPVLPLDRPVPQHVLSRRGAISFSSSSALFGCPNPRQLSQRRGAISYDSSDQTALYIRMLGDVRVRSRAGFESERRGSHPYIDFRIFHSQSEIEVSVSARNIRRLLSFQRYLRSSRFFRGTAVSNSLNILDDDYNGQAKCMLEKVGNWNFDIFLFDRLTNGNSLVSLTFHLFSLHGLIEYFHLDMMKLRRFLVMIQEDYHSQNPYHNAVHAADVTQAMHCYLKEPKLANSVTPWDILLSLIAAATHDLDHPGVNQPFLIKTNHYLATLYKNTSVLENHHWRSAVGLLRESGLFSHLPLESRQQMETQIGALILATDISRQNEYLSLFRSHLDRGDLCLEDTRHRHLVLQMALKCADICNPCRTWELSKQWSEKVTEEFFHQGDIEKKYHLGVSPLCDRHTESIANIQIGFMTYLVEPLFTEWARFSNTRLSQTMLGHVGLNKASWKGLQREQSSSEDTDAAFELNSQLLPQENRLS
Chain of Dual specificity calcium/calmodulin-dependent 3',5'-cyclic nucleotide phosphodiesterase 1A (P54750 whole entry): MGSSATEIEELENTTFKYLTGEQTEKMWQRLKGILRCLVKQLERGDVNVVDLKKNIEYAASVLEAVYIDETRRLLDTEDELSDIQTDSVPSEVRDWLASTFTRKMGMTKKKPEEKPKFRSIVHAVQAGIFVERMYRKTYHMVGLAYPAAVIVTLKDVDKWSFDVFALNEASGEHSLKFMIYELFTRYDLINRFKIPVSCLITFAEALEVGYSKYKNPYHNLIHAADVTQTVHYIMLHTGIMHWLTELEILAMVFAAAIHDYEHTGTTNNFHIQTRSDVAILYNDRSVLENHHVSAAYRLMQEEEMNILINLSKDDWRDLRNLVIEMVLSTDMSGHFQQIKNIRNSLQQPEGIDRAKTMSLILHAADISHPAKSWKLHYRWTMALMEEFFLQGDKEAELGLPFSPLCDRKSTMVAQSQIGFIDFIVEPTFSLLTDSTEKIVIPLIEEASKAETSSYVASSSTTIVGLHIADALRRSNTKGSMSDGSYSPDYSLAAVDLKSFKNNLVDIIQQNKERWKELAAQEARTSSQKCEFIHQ
Chain of 3',5'-cyclic-AMP phosphodiesterase 4A (P27815 whole entry): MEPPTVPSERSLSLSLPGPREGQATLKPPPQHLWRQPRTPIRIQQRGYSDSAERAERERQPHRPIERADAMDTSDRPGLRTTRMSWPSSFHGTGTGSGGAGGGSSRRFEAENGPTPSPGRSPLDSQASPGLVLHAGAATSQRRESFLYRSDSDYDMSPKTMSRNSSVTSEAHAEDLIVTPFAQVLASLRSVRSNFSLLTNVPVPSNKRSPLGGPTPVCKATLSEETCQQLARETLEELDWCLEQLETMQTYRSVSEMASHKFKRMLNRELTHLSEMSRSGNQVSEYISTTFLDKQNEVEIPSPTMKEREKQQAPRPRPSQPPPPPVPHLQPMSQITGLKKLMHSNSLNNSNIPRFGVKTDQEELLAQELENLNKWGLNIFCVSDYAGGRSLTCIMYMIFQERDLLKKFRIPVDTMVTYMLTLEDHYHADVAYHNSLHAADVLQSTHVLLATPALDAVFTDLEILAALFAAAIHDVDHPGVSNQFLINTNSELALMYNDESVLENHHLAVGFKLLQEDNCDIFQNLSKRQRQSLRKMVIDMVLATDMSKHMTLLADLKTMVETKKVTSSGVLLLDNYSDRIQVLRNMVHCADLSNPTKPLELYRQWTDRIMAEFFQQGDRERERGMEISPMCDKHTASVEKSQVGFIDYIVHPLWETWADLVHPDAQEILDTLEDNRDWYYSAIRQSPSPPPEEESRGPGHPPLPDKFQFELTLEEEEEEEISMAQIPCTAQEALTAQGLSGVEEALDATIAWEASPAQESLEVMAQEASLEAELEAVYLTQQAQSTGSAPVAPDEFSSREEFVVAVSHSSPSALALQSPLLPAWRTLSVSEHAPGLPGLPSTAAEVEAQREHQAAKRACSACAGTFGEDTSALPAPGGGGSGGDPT
Chain of CYP3A4 (P08684 whole entry): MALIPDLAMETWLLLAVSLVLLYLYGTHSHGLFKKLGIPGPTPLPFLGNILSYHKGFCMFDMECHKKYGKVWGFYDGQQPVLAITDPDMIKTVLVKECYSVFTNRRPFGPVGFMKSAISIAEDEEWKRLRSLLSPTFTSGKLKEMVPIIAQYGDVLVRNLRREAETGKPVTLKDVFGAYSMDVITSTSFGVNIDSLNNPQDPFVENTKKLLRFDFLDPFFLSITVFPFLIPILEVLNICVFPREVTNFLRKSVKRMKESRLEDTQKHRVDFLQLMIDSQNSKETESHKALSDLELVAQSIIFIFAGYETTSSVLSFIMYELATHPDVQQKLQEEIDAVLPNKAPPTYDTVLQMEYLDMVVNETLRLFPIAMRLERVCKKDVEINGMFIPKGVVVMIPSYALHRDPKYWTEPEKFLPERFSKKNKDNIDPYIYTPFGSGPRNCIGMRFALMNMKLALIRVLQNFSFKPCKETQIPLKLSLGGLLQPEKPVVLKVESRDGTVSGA
Chain of High affinity cAMP-specific and IBMX-insensitive 3',5'-cyclic phosphodiesterase 8A (O60658 whole entry): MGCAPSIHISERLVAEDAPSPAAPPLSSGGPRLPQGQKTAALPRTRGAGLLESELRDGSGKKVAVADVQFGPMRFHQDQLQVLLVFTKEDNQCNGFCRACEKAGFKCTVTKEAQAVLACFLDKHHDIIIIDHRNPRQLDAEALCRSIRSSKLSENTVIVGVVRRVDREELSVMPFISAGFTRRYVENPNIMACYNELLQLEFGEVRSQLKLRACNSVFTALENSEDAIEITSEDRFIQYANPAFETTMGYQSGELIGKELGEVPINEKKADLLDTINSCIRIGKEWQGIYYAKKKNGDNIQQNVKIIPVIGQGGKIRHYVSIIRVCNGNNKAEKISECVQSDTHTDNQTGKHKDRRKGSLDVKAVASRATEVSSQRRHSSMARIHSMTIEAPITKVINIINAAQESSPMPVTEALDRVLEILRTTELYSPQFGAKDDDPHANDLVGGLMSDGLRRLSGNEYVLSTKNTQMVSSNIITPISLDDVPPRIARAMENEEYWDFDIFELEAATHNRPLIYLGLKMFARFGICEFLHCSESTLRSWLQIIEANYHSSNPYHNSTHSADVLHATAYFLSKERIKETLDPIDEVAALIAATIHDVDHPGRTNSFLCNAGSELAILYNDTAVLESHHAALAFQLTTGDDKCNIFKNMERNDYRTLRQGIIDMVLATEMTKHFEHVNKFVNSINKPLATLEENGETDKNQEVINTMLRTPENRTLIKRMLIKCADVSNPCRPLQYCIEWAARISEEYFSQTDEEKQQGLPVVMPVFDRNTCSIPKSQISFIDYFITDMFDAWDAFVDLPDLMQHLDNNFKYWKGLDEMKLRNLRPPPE
Chain of cGMP-dependent 3',5'-cyclic phosphodiesterase (O00408 whole entry): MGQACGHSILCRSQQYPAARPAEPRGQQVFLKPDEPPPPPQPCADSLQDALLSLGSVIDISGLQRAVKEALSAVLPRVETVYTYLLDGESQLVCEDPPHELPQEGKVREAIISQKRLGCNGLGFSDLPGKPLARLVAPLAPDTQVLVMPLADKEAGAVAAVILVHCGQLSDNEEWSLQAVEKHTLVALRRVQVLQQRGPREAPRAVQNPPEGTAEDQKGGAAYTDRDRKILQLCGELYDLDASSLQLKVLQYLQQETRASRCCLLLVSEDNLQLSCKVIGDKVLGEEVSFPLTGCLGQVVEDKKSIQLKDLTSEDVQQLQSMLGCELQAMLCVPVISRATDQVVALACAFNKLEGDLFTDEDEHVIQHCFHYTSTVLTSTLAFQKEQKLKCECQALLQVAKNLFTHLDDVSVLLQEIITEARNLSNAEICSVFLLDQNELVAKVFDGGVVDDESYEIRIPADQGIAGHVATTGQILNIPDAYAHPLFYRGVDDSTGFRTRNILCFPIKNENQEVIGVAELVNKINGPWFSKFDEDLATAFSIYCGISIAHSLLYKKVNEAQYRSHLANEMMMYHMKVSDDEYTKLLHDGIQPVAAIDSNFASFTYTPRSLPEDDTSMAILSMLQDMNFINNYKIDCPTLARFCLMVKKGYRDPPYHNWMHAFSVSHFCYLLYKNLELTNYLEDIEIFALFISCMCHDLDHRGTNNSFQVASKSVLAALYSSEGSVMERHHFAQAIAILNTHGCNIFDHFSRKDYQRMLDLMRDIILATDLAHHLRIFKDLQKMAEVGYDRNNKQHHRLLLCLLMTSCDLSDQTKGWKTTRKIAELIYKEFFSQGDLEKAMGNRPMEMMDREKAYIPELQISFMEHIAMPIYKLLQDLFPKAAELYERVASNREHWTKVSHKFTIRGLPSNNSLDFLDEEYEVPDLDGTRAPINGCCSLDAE
Chain of CYP2C9 (P11712 whole entry): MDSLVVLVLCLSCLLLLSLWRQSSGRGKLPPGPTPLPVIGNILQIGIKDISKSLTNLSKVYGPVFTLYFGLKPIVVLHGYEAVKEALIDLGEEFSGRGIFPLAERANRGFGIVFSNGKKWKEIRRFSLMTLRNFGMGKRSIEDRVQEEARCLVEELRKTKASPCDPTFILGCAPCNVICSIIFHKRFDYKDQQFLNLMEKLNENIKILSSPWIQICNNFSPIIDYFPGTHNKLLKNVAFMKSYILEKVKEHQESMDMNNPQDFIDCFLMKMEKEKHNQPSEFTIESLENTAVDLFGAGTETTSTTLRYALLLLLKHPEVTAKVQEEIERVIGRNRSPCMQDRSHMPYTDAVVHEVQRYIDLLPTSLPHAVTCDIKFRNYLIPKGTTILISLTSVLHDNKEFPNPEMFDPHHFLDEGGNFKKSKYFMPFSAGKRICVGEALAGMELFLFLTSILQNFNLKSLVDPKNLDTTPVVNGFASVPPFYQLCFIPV

Question: Which IC50 [1] does the source give for `CCCCCCCNS(=O)(=O)c1ccc(OCC)c(-c2nc3c(CCC)nn(C)c3c(=O)[nH]2)c1` here?
Answer: 3.9 nM

Question: With `CCCc1nn(C)c2c(=O)[nH]c(-c3cc(S(=O)(=O)NCc4ccc(OC)c(F)c4)ccc3OCC)nc12` as the compound, how does the IC50 [1] read?
Answer: 3.3 nM

Question: For `CCCc1nn(C)c2c(=O)[nH]c(-c3cc(S(=O)(=O)NCCN4CCOCC4)ccc3OCC)nc12`, which IC50 [1] is on record?
Answer: 1.6 nM

Question: With `CCCc1nn(C)c2c(=O)[nH]c(-c3cc(S(=O)(=O)NCCCN4CCOCC4)ccc3OCC)nc12` as the compound, how does the IC50 [1] read?
Answer: 2.6 nM

Question: With `CCCc1nn(C)c2c(=O)[nH]c(-c3cc(S(=O)(=O)NCCc4c[nH]c5ccccc45)ccc3OCC)nc12` as the compound, how does the IC50 [1] read?
Answer: 13 nM

Question: With `CCCc1nn(C)c2c(=O)[nH]c(-c3cc(S(=O)(=O)NCCCCCCO)ccc3OCC)nc12` as the compound, how does the AUC [2] read?
Answer: 69.4 ng·h/mL

Question: And the AUC [3]?
Answer: 134 ng·h/mL

Question: And the AUC(0-inf) [4]?
Answer: 81.8 ng·h/mL

Question: And the AUC(0-inf) [5]?
Answer: 71 ng·h/mL

Question: What about the AUC(0-inf) [6] of the same compound?
Answer: 156 ng·h/mL

Question: And the CL/F [7]?
Answer: 204 mL/min/kg

Question: And the CL/F [8]?
Answer: 1070 mL/min/kg

Question: What about the Vd/F [9] of the same compound?
Answer: 1.65 L/kg

Question: What about the Vd/F [10] of the same compound?
Answer: 76.8 L/kg

Question: And the inhibition at 10 µM (CYP3A4)?
Answer: 50%

Question: What about the inhibition at 10 µM (CYP2C9) of the same compound?
Answer: 56%

Question: And the IC50 [11]?
Answer: 62 nM

Question: And the IC50 [12]?
Answer: 560 nM

Question: What about the IC50 [13] of the same compound?
Answer: > 10000 nM

Question: And the IC50 [14]?
Answer: 3700 nM

Question: What about the IC50 [15] of the same compound?
Answer: 1.5 nM

Question: What about the IC50 [16] of the same compound?
Answer: 5.2 nM

Question: And the IC50 ([17]; read-out: IC50)?
Answer: > 10000 nM

Question: What about the IC50 [18] of the same compound?
Answer: > 10000 nM

Question: What about the IC50 [19] of the same compound?
Answer: 3800 nM

Question: What about the IC50 [20] of the same compound?
Answer: 2000 nM

Question: What about the IC50 [21] of the same compound?
Answer: 1400 nM

Question: And the solubility [22]?
Answer: 80 µM (≈ 39.3 µg/mL)

Question: And the solubility [23]?
Answer: 20 µM (≈ 9.83 µg/mL)

Question: And the solubility [24]?
Answer: 20 µM (≈ 9.83 µg/mL)

Question: And the solubility [25]?
Answer: 10 µM (≈ 4.92 µg/mL)

Question: What about the Papp A→B ([26]; Caco-2, read-out: permeability) of the same compound?
Answer: 9.1 ×10⁻⁶ cm/s

Question: And the Papp B→A [27]?
Answer: 54.4 ×10⁻⁶ cm/s

Question: And the fraction unbound [28]?
Answer: 0.023

Question: What about the logP [29] of the same compound?
Answer: 2.73

Question: What about the logD [30] of the same compound?
Answer: 2.73

Question: And the pKa [31]?
Answer: 5.22

Question: What about the fraction unbound [32] of the same compound?
Answer: 0.023

Question: What about the metabolised [33] of the same compound?
Answer: > 95%

Question: And the half-life [34]?
Answer: 48 min

Question: What about the Cmax [35] of the same compound?
Answer: 221 ng/mL

Question: And the Cmax [36]?
Answer: 105 ng/mL

Question: What about the Cmax [37] of the same compound?
Answer: 380 ng/mL

Question: And the Tmax [38]?
Answer: 30 min

Question: And the Tmax [39]?
Answer: 4.98 min

Question: And the C0 (Plasma)?
Answer: 556 ng/mL

Question: What about the AUC [40] of the same compound?
Answer: 80 ng·h/mL

Question: What about the IC50 [1] of the same compound?
Answer: 1.5 nM

Question: What about the efflux ratio (in vitro) of the same compound?
Answer: 6

Question: And the AUC (Oryctolagus cuniculus)?
Answer: 432

Question: For `CCCc1nn(C)c2c(=O)[nH]c(-c3cc(S(=O)(=O)N4CCN(C)CC4)ccc3OCC)nc12`, which IC50 [11] is on record?
Answer: 600 nM

Question: What about the IC50 [17] of the same compound?
Answer: 22000 nM

Question: What about the permeability ([26]; Caco-2) of the same compound?
Answer: 37.9 ×10⁻⁶ cm/s

Question: And the Papp B→A [27]?
Answer: 45.5 ×10⁻⁶ cm/s

Question: And the fraction unbound [28]?
Answer: 0.066

Question: What about the logP [29] of the same compound?
Answer: 2.58

Question: What about the logD [30] of the same compound?
Answer: 2.69

Question: And the pKa [31]?
Answer: 4.86

Question: What about the fraction unbound [32] of the same compound?
Answer: 0.04

Question: And the metabolised [33]?
Answer: 90%

Question: What about the AUC (Oryctolagus cuniculus) of the same compound?
Answer: 305

Question: Which IC50 [1] does the source give for `CCCc1nn(C)c2c(=O)[nH]c(-c3cc(S(=O)(=O)NCCN4CCCCC4)ccc3OCC)nc12` here?
Answer: 16 nM

Question: With `CCCc1nn(C)c2c(=O)[nH]c(-c3cc(S(=O)(=O)NCCCCCO)ccc3OCC)nc12` as the compound, how does the IC50 [1] read?
Answer: 1.7 nM

Question: Which IC50 [1] does the source give for `CCCc1nn(C)c2c(=O)[nH]c(-c3cc(S(=O)(=O)NCCN(CC)CC)ccc3OCC)nc12` here?
Answer: 32 nM

Question: For `CCCc1nn(C)c2c(=O)[nH]c(-c3cc(S(=O)(=O)NCCCN(C)C)ccc3OCC)nc12`, which IC50 [1] is on record?
Answer: 14 nM

Question: For `CCCc1nn(C)c2c(=O)[nH]c(-c3cc(S(=O)(=O)NCCCO)ccc3OCC)nc12`, which IC50 [1] is on record?
Answer: 3.4 nM

Question: Which IC50 [1] does the source give for `CCCCCCNS(=O)(=O)c1ccc(OCC)c(-c2nc3c(CCC)nn(C)c3c(=O)[nH]2)c1` here?
Answer: 12 nM

Question: Which IC50 [1] does the source give for `CCCc1nn(C)c2c(=O)[nH]c(-c3cc(S(=O)(=O)NCCCCO)ccc3OCC)nc12` here?
Answer: 1.9 nM
